In patent US20110207793A1, “1-AMINOCYCLOHEXANE DERIVATIVES FOR THE TREATMENT OF SLEEP DISORDERS” (priority 2008, published 2011):

How the values were obtained:
[1] = molecular target: alpha9/alpha10 nicotinic receptor (Rattus norvegicus, UniProt P43144+Q9JLB5); details: Plazas, et al., Eur J Pharmacol., 2007; cited from earlier work
[2] = tested on: subjects with subjective tinnitus of at least moderate severity; assay: Double-blind placebo-controlled pilot trial of neramexane in tinnitus: TBF-12; type: in vivo, human; details: final daily doses of 50 or 75 mg, after 16-week double-blind treatment (Visit 6); distinct from placebo or low-dose (25 mg)
Experimental: (§1) The objective of this pilot project was to conduct a clinical trial to assess the efficacy of neramexane as a treatment for tinnitus. The primary objective of this study was to compare the efficacy, tolerability and safety of neramexane mesylate at three different dosages (25, 50 or 75 mg/d) with placebo in subjects with subjective tinnitus of at least moderate severity.
(§2) In a double-blind, multicenter, randomized, placebo-controlled, parallel-group study, the efficacy of neramexane in subjects suffering from tinnitus of at least moderate severity was assessed. Approximately 100 patients, who fulfilled particular inclusion criteria and met none of particular exclusion criteria, were randomized to each of four double-blind treatment groups (neramexane mesylate 25, 50, 75 mg/d or placebo), resulting in approximately 400 patients in total.
The double-blind, 16-week treatment period consisted of a 4-week uptitration period and a 12-week fixed-dose treatment period at unchanged maintenance b.i.d. dosing. In case of poor tolerability, however, the investigator could consider a dose reduction by 25 mg/d (or placebo, respectively). […]
Visit 1 (screening): After signing the consent form, the subject underwent a physical examination and clinical laboratory testing. Patient eligibility for the study was evaluated via a check of inclusion/exclusion criteria. […]

[3] = tested on: subjects with subjective tinnitus of at least moderate severity; assay: Double-blind placebo-controlled pilot trial of neramexane in tinnitus: question 12/5 (sleep item) of the structured tinnitus interview; type: in vivo, human; details: for TI Sleep item 12/5: Prevented (%) / TI Sleep item 12/5: Prevented n / TI Sleep item 12/5: affected (%) / TI Sleep item 12/5: affected n / TI Sleep item 12/5: no effect (%) / TI Sleep item 12/5: no effect n: ITT-OC
Experimental: as §1, §2
The double-blind, 16-week treatment period consisted of a 4-week uptitration period and a 12-week fixed-dose treatment period at unchanged maintenance b.i.d. dosing. In case of poor tolerability, however, the investigator could consider a dose reduction by 25 mg/d (or placebo, respectively). After the treatment phase, there was a 4-week follow-up period with no active treatment and concomitant therapy restrictions. In total, this study involved seven study visits: screening, baseline, and at the end of weeks 4, 8, 12, 16, and 20.
Visit 2 (baseline): The subject was asked about adverse events and changes in concomitant medication/disease, which events/changes were documented. The subject was evaluated for study eligibility based on a review of the inclusion/exclusion criteria. Trial procedures as well as allowed and forbidden concomitant medications were reviewed with the subject. An initial Tinnitus Interview was conducted. The subject also completed a TBF-12, HADS-D Questionnaire and GÜF Questionnaire (if applicable). The subject was enrolled in the study and study medication (placebo or neramexane) was dispensed as described below.
Visit 6 (Week 16, end of treatment). This visit occurred at the end of the 12-week fixed-dose double-blind treatment period. The subject was asked about adverse events and changes in concomitant medication/disease, which changes are documented. A clinical laboratory evaluation was performed. A follow-up Tinnitus Interview was conducted, and the subject completed a TBF-12, HADS-D Questionnaire and GÜF Questionnaire (if applicable). Pure-tone audiometry (air conduction) was also conducted.
Visit 7 (Week 20): This visit occurred at the end of the 4-week follow-up period after the last study medication dose. Review of concomitant medications as well as the occurrence of adverse events since the last visit is conducted with subject. A follow-up Tinnitus Interview was conducted, and the subject completed a TBF-12, HADS-D Questionnaire and GÜF Questionnaire (if applicable).
Neramexane mesylate immediate release tablets (12.5 mg and 25 mg) and matching placebo tablets were administered as film coated tablets.
Study medication was dispensed at Visit 2 (baseline, day, 0). Each patient received one blister box containing 5 blister cards (including one reserve blister) of double-blind study medication (i.e., 32 tablets). Subjects were instructed to take 2 tablets twice daily (4 tablets/d), beginning the day after dispensing of the study medication, until they returned for their next study visit (Visit 3). For those subjects assigned to receive active medication, some placebo tablets were incorporated into the dosing regimen to ensure blinding during the uptitration period. The target fixed-maintenance dose of 25, 50, or 75 mg neramexane mesylate/d was administered starting with the fifth week of double-blind treatment and was continued throughout the study. […]

[4] = Follow-Up (Change from Baseline), 25 mg/d, N = 100
[5] = Follow-Up (Change from Baseline), 50 mg/d, N = 95
[6] = Follow-Up (Change from Baseline), 75 mg/d, N = 89
[7] = Week 16 Visit (Change from Baseline), 25 mg/d, N = 89
[8] = Week 16 Visit (Change from Baseline), 50 mg/d, N = 80
[9] = Week 16 Visit (Change from Baseline), 75 mg/d, N = 64

Sequence of alpha9/alpha10 nicotinic receptor (P43144 26-479): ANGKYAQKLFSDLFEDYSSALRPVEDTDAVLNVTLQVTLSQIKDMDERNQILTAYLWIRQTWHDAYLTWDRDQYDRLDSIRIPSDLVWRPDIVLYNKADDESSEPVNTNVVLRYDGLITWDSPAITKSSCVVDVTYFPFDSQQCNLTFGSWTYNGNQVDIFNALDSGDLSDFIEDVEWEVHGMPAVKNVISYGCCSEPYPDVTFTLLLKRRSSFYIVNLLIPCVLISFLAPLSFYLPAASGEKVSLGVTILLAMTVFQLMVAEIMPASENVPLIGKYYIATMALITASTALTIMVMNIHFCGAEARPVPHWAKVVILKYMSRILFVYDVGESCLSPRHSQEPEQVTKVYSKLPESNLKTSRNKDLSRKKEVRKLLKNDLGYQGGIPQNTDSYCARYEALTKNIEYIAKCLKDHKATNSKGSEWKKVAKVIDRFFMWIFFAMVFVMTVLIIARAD
Sequence of alpha9/alpha10 nicotinic receptor (Q9JLB5 25-447): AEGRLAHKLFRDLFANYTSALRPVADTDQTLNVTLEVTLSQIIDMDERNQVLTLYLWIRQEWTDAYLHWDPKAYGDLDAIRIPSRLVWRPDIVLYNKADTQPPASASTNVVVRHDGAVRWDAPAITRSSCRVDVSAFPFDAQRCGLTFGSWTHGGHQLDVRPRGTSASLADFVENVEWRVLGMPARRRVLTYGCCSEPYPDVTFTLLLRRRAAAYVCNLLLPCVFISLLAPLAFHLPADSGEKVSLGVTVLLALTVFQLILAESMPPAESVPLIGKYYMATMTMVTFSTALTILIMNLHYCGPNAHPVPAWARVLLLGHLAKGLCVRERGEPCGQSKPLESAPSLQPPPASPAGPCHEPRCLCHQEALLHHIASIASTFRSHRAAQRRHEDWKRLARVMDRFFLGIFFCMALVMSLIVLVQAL

Compound: CC1(C)CC(C)(C)CC(C)(N)C1 [Neramexane, 1-amino-1,3,3,5,5-pentamethylcyclohexane]
- activity at alpha9/alpha10 nicotinic receptor [1]: activity as an alpha9/alpha10 nicotinic receptor antagonist
- improvement of tinnitus as measured by the TBF-12 [2]: clear improvement of their tinnitus
- TI Sleep item 12/5: Prevented (%) ([3]; Baseline, 25 mg/d, N = 106): 12.3%
- TI Sleep item 12/5: Prevented n ([3]; Baseline, 25 mg/d, N = 106): 13
- TI Sleep item 12/5: affected (%) ([3]; Baseline, 25 mg/d, N = 106): 64.2%
- TI Sleep item 12/5: affected n ([3]; Baseline, 25 mg/d, N = 106): 68
- TI Sleep item 12/5: no effect (%) ([3]; Baseline, 25 mg/d, N = 106): 23.6%
- TI Sleep item 12/5: no effect n ([3]; Baseline, 25 mg/d, N = 106): 25
- TI Sleep item 12/5: Prevented (%) ([3]; Baseline, 50 mg/d, N = 106): 6.6%
- TI Sleep item 12/5: Prevented n ([3]; Baseline, 50 mg/d, N = 106): 7
- TI Sleep item 12/5: affected (%) ([3]; Baseline, 50 mg/d, N = 106): 66.0%
- TI Sleep item 12/5: affected n ([3]; Baseline, 50 mg/d, N = 106): 70
- TI Sleep item 12/5: no effect (%) ([3]; Baseline, 50 mg/d, N = 106): 27.4%
- TI Sleep item 12/5: no effect n ([3]; Baseline, 50 mg/d, N = 106): 29
- TI Sleep item 12/5: Prevented (%) ([3]; Baseline, 75 mg/d, N = 99): 8.1%
- TI Sleep item 12/5: Prevented n ([3]; Baseline, 75 mg/d, N = 99): 8
- TI Sleep item 12/5: affected (%) ([3]; Baseline, 75 mg/d, N = 99): 68.7%
- TI Sleep item 12/5: affected n ([3]; Baseline, 75 mg/d, N = 99): 68
- TI Sleep item 12/5: no effect (%) ([3]; Baseline, 75 mg/d, N = 99): 23.2%
- TI Sleep item 12/5: no effect n ([3]; Baseline, 75 mg/d, N = 99): 23
- TI Sleep item 12/5: Prevented (%) [3, 4]: 3.0%
- TI Sleep item 12/5: Prevented n [3, 4]: 3
- TI Sleep item 12/5: affected (%) [3, 4]: 65.0%
- TI Sleep item 12/5: affected n [3, 4]: 65
- TI Sleep item 12/5: no effect (%) [3, 4]: 32.0%
- TI Sleep item 12/5: no effect n [3, 4]: 32
- TI Sleep item 12/5: Prevented (%) [3, 5]: 1.1%
- TI Sleep item 12/5: Prevented n [3, 5]: 1
- TI Sleep item 12/5: affected (%) [3, 5]: 57.9%
- TI Sleep item 12/5: affected n [3, 5]: 55
- TI Sleep item 12/5: no effect (%) [3, 5]: 41.1%
- TI Sleep item 12/5: no effect n [3, 5]: 39
- TI Sleep item 12/5: Prevented (%) [3, 6]: 3.4%
- TI Sleep item 12/5: Prevented n [3, 6]: 3
- TI Sleep item 12/5: affected (%) [3, 6]: 57.3%
- TI Sleep item 12/5: affected n [3, 6]: 51
- TI Sleep item 12/5: no effect (%) [3, 6]: 39.3%
- TI Sleep item 12/5: no effect n [3, 6]: 35
- TI Sleep item 12/5: Prevented (%) [3, 7]: 2.2%
- TI Sleep item 12/5: Prevented n [3, 7]: 2
- TI Sleep item 12/5: affected (%) [3, 7]: 65.2%
- TI Sleep item 12/5: affected n [3, 7]: 58
- TI Sleep item 12/5: no effect (%) [3, 7]: 32.6%
- TI Sleep item 12/5: no effect n [3, 7]: 29
- TI Sleep item 12/5: Prevented (%) [3, 8]: 1.3%
- TI Sleep item 12/5: Prevented n [3, 8]: 1
- TI Sleep item 12/5: affected (%) [3, 8]: 48.8%
- TI Sleep item 12/5: affected n [3, 8]: 39
- TI Sleep item 12/5: no effect (%) [3, 8]: 50.0%
- TI Sleep item 12/5: no effect n [3, 8]: 40
- TI Sleep item 12/5: Prevented (%) [3, 9]: 6.3%
- TI Sleep item 12/5: Prevented n [3, 9]: 4
- TI Sleep item 12/5: affected (%) [3, 9]: 50.0%
- TI Sleep item 12/5: affected n [3, 9]: 32
- TI Sleep item 12/5: no effect (%) [3, 9]: 43.8%
- TI Sleep item 12/5: no effect n [3, 9]: 28
- improvement of sleep, question 12/5 of the structured tinnitus interview ([3]; final daily doses of 50 or 75 mg, after 16 weeks of double-blind treatment, distinct from placebo or low-dose (25 mg)): clear improvement of their sleep
